Laboratory results reported in patent US20120178769A1, “NOVEL COMPOUNDS FOR INHIBITING EEF-2 KINASE ACTIVITY” (The University of Medicine and Dentistry, priority 2009, published 2012).

What was measured:
eEF2 kinase = eEF2 kinase (Homo sapiens, UniProt O00418); test: eEF2 kinase activity assay with purified eEF2 (33P-ATP, SDS-PAGE, autoradiography); format: biochemical; settings: purified eEF2, FIG. 1
Description: Recombinant eEF2 kinase (0.5 μg) was incubated with purified rabbit reticulocyte eEF2 (0.5 μg) in a reaction mixture consisting of 50 mM Hepes-KOH pH 6.6, 10 mM magnesium acetate, 5 mM DTT, 100 μM CaCl2, 0.5 μg calmodulin, 50 μM ATP, and 0.2 μCi [γ-^33P]-ATP (3000 Ci/mmol). The reactions were run at 30° C. for 15 minutes, and were terminated by incubation in an ice/water bath and addition of Laemmli sample buffer. Samples were analyzed by SDS-PAGE and autoradiography.

eEF2K = eEF2K (Homo sapiens, UniProt O00418); settings: known selenazine inhibitors; cited from earlier work
glioma cell lines = settings: by inhibiting eEF2-K; Parmer et al, 1997; cited from earlier work

eEF2K, sequence (O00418 whole entry): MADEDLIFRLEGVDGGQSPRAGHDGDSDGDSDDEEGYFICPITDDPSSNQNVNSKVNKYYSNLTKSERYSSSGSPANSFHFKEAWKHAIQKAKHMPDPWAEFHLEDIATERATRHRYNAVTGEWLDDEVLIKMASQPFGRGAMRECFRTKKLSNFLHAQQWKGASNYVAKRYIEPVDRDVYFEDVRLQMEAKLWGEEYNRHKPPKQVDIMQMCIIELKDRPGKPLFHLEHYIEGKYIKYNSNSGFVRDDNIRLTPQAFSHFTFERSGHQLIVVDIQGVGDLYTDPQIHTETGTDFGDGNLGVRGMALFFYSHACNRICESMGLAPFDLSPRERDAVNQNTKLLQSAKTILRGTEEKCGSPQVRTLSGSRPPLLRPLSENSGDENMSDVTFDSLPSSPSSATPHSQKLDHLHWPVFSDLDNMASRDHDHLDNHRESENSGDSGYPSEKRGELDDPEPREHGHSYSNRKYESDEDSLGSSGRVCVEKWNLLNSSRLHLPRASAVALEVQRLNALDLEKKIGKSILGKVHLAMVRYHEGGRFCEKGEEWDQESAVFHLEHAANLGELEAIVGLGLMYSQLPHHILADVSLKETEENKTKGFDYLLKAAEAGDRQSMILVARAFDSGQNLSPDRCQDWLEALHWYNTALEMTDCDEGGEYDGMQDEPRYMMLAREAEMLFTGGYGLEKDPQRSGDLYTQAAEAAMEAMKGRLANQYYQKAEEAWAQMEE

CCCCCCCCCCCCC/C=C/[C@@H](O)[C@@H](N)COP(=O)(O)O [sphingosine-1-phosphate]
inhibition of eEF2 kinase in vitro (eEF2 kinase): inhibit eEF2 kinase in vitro

CCCCCC1=NC(O)(CC)CC[Se]1 (centres unmarked) [PS2]
inhibition of eEF2K phosphorylative activity (eEF2K): known to inhibit eEF2K phosphorylative activity

CC(=O)c1c(O)c(C)c(O)c(Cc2c(O)c3c(c(C(=O)/C=C/c4ccccc4)c2O)OC(C)(C)C=C3)c1O [Rottlerin]
inhibition of growth of glioma cell lines (glioma cell lines): inhibit growth of glioma cell lines

Cc1ccc(C2=NC(C)(O)CC(C(C)C)[Se]2)cc1 (centres unmarked) [TS4]
inhibition of eEF2K phosphorylative activity (eEF2K): known to inhibit eEF2K phosphorylative activity

CCC1(O)CC[Se]C(c2ccc(C)cc2)=N1 (centres unmarked) [TS2]
inhibition of eEF2K phosphorylative activity (eEF2K): known to inhibit eEF2K phosphorylative activity
